Measured values from US20260021167A1, “COMPOSITIONS AND METHODS FOR TREATING OR PREVENTING NEURODEGENERATIVE DISEASES” (Delaware State University, priority 2022, published 2026).

Tests used:
N27 cells [1] = assay: Cell viability (MTT) assay after PFF exposure; assay type: cell-based, rat; conditions: N27 cells after PFF (1 μg/ml) exposure for 24 h; compared to PFF only control
From the text: Cell Viability Assay. The MTT assay is a colorimetric assay that is based on the conversion of water-soluble MTT (3-(4,5-dimethylthiazol-2-yl)-2,5-diphenyltetrazolium bromide) into formazan crystal by mitochondrial dehydrogenase enzymes, soluble in 100% DMSO. The resulting solution is purple in color, and the color intensity is proportional to the viable cells for each well in a 96-well plate. A variety of SENP-1 inhibitors, such as SUMO-2 aldehyde, Momordin lc, streptonigrin, hinokiflavone, oleanolic acid and siRNA of SENP-1, were treated in N27 cells after PFF (1 μg/ml) exposure for 24 h. After adding 5 mM MTT dye to cells, the color intensity in MTT assays was measured using a spectrophotometer (SpectraMax M5e, Molecular devices, Dover, USA), at 570 nm with a reference wavelength of 630 nm. The cells were incubated with the MTT reagent (ab211091, Abcam) at 37° C. for 3 h, followed by solubilizing the formazan crystals in solution.
In this study, numerous commercially available SENP-1 inhibitors were tested for the recovery effects from preformed fibrils of alpha-synuclein (PFF)-induced PD models in vitro. […]

N27 cells [2] = assay: ROS level (CellROX deep red) after PFF treatment; assay type: cell-based, rat; conditions: compared to PFF only control
Experimental: ROS Levels and Thioflavin-T Assessment. The reactive oxygen species (ROS) is a released byproduct during oxidative stress. On the other hand, thioflavin-T is an assay used to understand the level of protein aggregation that can be detrimental to cell survival. In order to assess the level of oxidative stress, all the SENP-1 inhibitors treated cells were incubated in media containing 5 μg/mL of the ROS reagent CellROX deep red reagent (C10422, Thermo Fisher Scientific) and 25 μg/mL of thioflavin-T reagent (CAS: 2390-54-7, Acros Organics) at 37° C. for 30 min. The cells were then washed 3 times with warm phosphate-buffered saline (PBS) without Ca^2+ or Mg^2+ (137 mM NaCl, 2.7 mM KCl, 4.3 mM Na2HPO4, and 1.47 mM KH2PO4), and several images from each well were collected using EVOS FL Cell Imaging Systems (Invitrogen, MA, USA). A minimum of 2 wells were dedicated to each group, and the experiments were repeated 3-4 times independently (total replicated: n=8-10/group). The intensity of red fluorescence corresponding to ROS levels and green labels corresponding to protein aggregation was analyzed by blinded raters using ImageJ.

SUMO-1 = assay: Western blot of SUMO-1 level in PFF-exposed N27p cells; assay type: cell-based, rat; conditions: PFF exposure, compared with PFF only
From the text: A) The RNA interference suppressed the expression level of SENP-1, which enhanced SUMO-1 level. […] One-Way ANOVA, Dunnett's test was applied for statistical analysis in comparison with PFF only (#). *: p<0.05, **: p<0.01, p<0.001 and n.s.: not significant.

PFF-injected old mice [3] = assay: Hindlimb clasping in PFF-injected mice; assay type: in vivo, mouse; conditions: 10 and/or 50 mg/kg oral, vs PFF only
Experimental: (§1) A mouse model of Parkinson's disease is C57BL/6 male or female mice (50% each) injected with 5 μg of mouse PFF at 12 months old, followed by a treatment below for 6-7 weeks: • 1) without PFF injection, followed by vehicle (control, n=7); • 2) PFF injection, followed by vehicle (PFF only: control, n=8); • 3) PFF injection, followed by daily 10 mg/kg Momordin gavage (n=7-8); • 4) PFF injection, followed by daily 50 mg/kg Momordin gavage (n=7-8).
Hindlimb Clasping. This is often characterized by bat-like posture when mice are picked up by the tail, indicating they are experiencing severe motor deficits. A mouse was placed on a horizontal plane and held at 2 cm from the tail tip, then slowly to the height of 10 cm from the surface. A video was recorded for 15 sec for each trial. A total of 3 trials were taken over 3 consecutive days and analyzed for the time in hindlimb clasping by a blinded rater.

PFF-injected old mice [4] = assay: Pole test in PFF-injected mice; assay type: in vivo, mouse; conditions: 10 and/or 50 mg/kg oral, vs PFF only
Experimental: as §1
Pole Test. All the mice were placed on a vertical pole with their face up and habituated to face down the pole to climb down for 5 consecutive days. The time taken for a mouse to turn and position for the descend was noted, and the latency for climb-down was counted. A mouse falling off or slipping down the pole without turning was considered a failure. Videos of the pole test were taken and analyzed by a blinded rater to record the total climb-down or turn time. Minimal 5 trials were performed for each animal, and the average of 5 trials was considered as the final score for data presentation.

PFF-injected mice = assay: Behavioral tests overall in PFF-injected mice; assay type: in vivo, mouse; conditions: 10 or 50 mg/kg oral
Experimental: as §1
Behavioral tests were performed using the methods described in Ghosh et al. (Int J Mol Sci. 2022 Apr. 12; 23 (8): 4262) (FIG. 11A).

protein aggregates = assay: Thioflavin-T protein aggregation in brain sections of PFF-injected mice; assay type: in vivo, mouse
[5] = system: phosphorylated α-synuclein; assay: Western blot of phosphorylated α-synuclein in α-synuclein IP tissue samples; assay type: in vivo, mouse; conditions: PFF-injected mice, vs PFF only
Experimental: A) In Western blots, Momordin reversed the toxicity from PFF injection in reducing phospho-α-synuclein and SENP-1 on α-synuclein in the MB and STR. […] A pathological marker, phosphorylated α-synuclein was increased by PFF injection, which was reversed by Momordin treatment in the MB (F) and the STR (G).
as §1

[6] = low and high dosages (10 or 50 mg/kg)
[7] = both 10 and 50 mg/kg oral, PFF-injected mice, vs PFF only

SMILES: CC1(C)CC[C@]2(C(=O)O)CC[C@]3(C)C(=CC[C@@H]4[C@@]5(C)CC[C@H](O[C@@H]6O[C@H](C(=O)O)[C@@H](O)[C@H](O[C@@H]7OC[C@@H](O)[C@H](O)[C@H]7O)[C@H]6O)C(C)(C)[C@@H]5CC[C@]43C)[C@@H]2C1 [Momordin lc]
- cell viability from PFF-mediated toxicity (MTT assay) (N27 cells [1]): significantly enhanced the cell viability
- level of ROS (N27 cells [2]): reduced the level of ROS
- level of SUMO-1 (Western blot) (SUMO-1): increased level of SUMO-1
- hindlimb clasping (PFF-injected old mice [3]): reduces hindlimb clasping
- climb-down time in pole tests (PFF-injected old mice [4]): reduces
- turn time in pole tests (PFF-injected old mice [4]): reduces
- behavioral / motor deficits derived from PFF injection (PFF-injected mice): improved the behavioral deficits
- behavioral / motor deficits derived from PFF injection (PFF-injected mice; listed as Momordin): alleviates severe motor deficits
- level of alpha-synuclein accumulation/aggregation in Thioflavin-T staining in various brain regions (protein aggregates; PFF injection, mouse brains): reduced the level of alpha-synuclein accumulation/aggregation
- level of protein aggregates (Thioflavin-T) in the SNc (protein aggregates; [7]): significantly reduced
- level of protein aggregates (Thioflavin-T) in the striatum (protein aggregates; [7]): significantly reduced
- phosphorylated α-synuclein in the MB (α-synuclein IP) ([5]; midbrain): reversed
- phosphorylated α-synuclein in the STR (α-synuclein IP) ([5]; striatum): reversed
- safety in mice [6]: safe
